Molecules are shown by their SMILES.

Assay [1] concerns the target T1, CaFun30 (Candida albicans, UniProt A0A1D8PTJ0).
T1 construct: gene FUN30; full length, cloned NheI/XhoI in pET21c(+), expressed in E. coli BL21(DE3) Rosetta, Ni-NTA purified
T1 sequence (A0A1D8PTJ0 1-1097): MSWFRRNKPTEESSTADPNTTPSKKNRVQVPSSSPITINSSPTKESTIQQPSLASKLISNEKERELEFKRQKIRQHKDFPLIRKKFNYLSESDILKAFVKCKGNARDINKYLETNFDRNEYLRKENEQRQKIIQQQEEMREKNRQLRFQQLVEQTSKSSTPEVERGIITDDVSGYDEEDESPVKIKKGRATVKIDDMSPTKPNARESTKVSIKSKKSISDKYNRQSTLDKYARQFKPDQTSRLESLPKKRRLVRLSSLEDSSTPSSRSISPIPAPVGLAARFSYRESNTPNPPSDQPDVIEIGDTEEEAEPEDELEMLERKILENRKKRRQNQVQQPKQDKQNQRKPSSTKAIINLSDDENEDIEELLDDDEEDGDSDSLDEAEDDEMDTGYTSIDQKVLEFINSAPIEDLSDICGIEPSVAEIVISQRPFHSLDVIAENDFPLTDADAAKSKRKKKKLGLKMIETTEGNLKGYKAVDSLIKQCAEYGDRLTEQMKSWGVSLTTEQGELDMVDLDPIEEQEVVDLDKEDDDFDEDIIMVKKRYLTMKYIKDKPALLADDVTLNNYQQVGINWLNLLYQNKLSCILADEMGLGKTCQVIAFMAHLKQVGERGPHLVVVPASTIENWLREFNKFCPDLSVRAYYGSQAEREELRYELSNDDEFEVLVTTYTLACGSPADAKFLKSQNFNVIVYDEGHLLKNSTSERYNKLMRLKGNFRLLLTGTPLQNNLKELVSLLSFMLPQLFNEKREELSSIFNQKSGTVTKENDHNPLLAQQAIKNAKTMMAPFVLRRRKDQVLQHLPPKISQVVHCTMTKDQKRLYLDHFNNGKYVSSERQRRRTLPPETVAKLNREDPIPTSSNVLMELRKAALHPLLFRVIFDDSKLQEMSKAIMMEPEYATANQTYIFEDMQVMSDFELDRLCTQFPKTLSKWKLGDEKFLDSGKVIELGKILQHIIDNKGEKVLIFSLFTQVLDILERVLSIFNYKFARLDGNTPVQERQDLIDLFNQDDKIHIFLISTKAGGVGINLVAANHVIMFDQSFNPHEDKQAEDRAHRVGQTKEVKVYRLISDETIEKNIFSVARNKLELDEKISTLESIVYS
Put plainly: biolayer interferometry (Octet R8, Ni-NTA sensor, protein immobilised). Format: binding. The following applies: PBS pH 7.4, 2 mM beta-mercaptoethanol; 1:1 model. Background: In BLI a coated tip is dipped into the sample, and binding shifts an interference pattern.

For assay [2], the target named is T2, CaFun30-c334 (Candida albicans, UniProt A0A1D8PTJ0).
T2 construct: gene FUN30; C-terminal fragment (RecA-like domain 2, motifs IV-VI, no ATPase activity), probably the last 334 residues; pCOLD I vector (N-terminal His tag implied), E. coli BL21(DE3) Rosetta, Ni-NTA purified
T2 sequence (A0A1D8PTJ0 764-1097): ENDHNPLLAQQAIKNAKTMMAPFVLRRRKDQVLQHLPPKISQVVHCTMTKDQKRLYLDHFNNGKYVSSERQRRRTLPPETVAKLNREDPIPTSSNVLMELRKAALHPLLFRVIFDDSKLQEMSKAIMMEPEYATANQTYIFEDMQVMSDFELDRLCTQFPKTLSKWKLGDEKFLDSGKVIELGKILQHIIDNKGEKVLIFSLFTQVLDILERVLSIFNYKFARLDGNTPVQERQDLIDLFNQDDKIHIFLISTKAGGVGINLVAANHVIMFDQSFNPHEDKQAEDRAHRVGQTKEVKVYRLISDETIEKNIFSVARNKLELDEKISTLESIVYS
Described as above. Format: binding. To be noted: PBS pH 7.4, 2 mM beta-mercaptoethanol; 1:1 model.

As a reminder, the Kd is the free concentration of one partner at which half of the binding sites on the other are occupied at equilibrium, for simple one-to-one binding. Low values mean tighter binding, high ones weaker binding. With `Cc1nnc2sc(SCC(=O)Nc3ccc(Cl)cc3)nn2c1=O` [F1853-0039], the Kd in assay [1] is 0.6 µM; in assay [2], 0.87 µM.

`CCc1cc2c(=O)c(-c3ccc(F)cc3)c(C)oc2cc1OCc1ccccc1` [F1067-0218]: the Kd was determined as 125 µM in assay [1] and 18 µM in assay [2].

`Cc1ccc(NC(=O)CSc2nc(C(F)(F)F)cc(=O)[nH]2)cc1Cl` [F2716-0594]: the Kd was 680 µM in assay [1] and 25.1 µM in assay [2].

The record behind these values is publication doi:10.1101/2025.07.07.663444v1, “Antifungal therapeutic potential of Candida albicans Fun30: screening and validation of novel inhibitors against Candida albicans” (biorxiv, 2025).
